# Assay results reported in paper PMC10759609, “A novel PDPN antagonist peptide CY12-RP2 inhibits melanoma growth via Wnt/β-catenin and modulates the immune cells” (Journal of Experimental & Clinical Cancer Research : CR, 2024).
# Legend:
# [1] = system: A875 PDPN overexpression cells; test: Wound healing, PDPN-overexpressing A875 cells; type: cell-based; details: A875 with PDPN overexpression
# Protocol: (§1) A375 GFP, A875 GFP, A375 PDPN^−/−, and A875 PDPN^+/+ cells were all seeded in 12-well plates at a density of 5 × 10^5 cells/well. When the cells reached 100% confluence the next day, the straight wound was scraped in each cultured well with a 20 µL pipette tip. Then the cells were washed repeatedly with complete DMEM to remove the cellular debris, and the medium was changed to a low serum medium containing 0.05% FBS. The scratch-treated cells were subsequently cultured for an additional indicated time and imaged at 0 h, 12 h, 24 h and 48 h. Quantification of wound closure was accomplished by measuring the distance between the phase contrast images’ anterior edges of the contralateral surfaces using ImageJ software. As for peptide (CY12-RP2) function experiments, images of phase contrast for A375 GFP and A875 GFP cells were captured at 0 h before peptide administration. The cells were then treated with CY12-RP2 (0 μM, 5 μM, 25 μM) for 24 h or 48 h, and then images were acquired again. Handling of the experimental results were carried out as previously described.
# (§2) To confirm whether PDPN could affect migration and invasion of melanoma cells in wnt/β-catenin signaling pathway-dependent manner, A375 cells with PDPN knockdown were treated with a Wnt/β-catenin signaling pathway agonist (SKL2001) and PDPN overexpression A875 cells were treated with an inhibitor (IWR1). […]
# [2] = system: A875 PDPN overexpression cells; test: Transwell, PDPN-overexpressing A875 cells; type: cell-based; details: A875 with PDPN overexpression
# Protocol: (§3) For invasion assay, matrigel (Corning, New York, USA) was coated on the upper surface of the upper chamber. The upper chamber was filled with DMEM medium containing 2% FBS, while the lower chamber contained a medium supplemented with 20% FBS. In brief, melanoma cells (A375 GFP, A875 GFP, A375 PDPN^−/−, and A875 PDPN^+/+ cells) were seeded in the upper chamber of the transwell plate (Corning, New York, USA) at about 5 × 10^4 cells/well with the medium as described above. For peptide functionality experiments, A375 and A875 cells were seeded in the upper chamber of the transwell plate at a density of 5 × 10^4 cells/well with various peptide concentrations (0 μM, 5 μM, 25 μM). Transwell inserts were fixed using 4% paraformaldehyde after 48 h cell invasion, and crystalline violet was used for staining. The quantities of invading cells were quantified using ImageJ software (NIH).
# as §2
# [3] = system: EMT in A875 PDPN overexpression cells; test: Western blot EMT proteins, PDPN-overexpressing A875 cells; type: cell-based
# Protocol: (§4) Melanoma cells were cultured in a 60 mm dish with a complete medium and various peptide concentrations (0 μM, 5 μM, 25 μM). Protein was extracted after cells were cultured or treated for 48 h using protein lysis buffer, separated using a 10% or 15% Bis–Tris PAGE gel (Epizyme Biomedical Technology, Shanghai, China), and transferred onto a PVDF membrane (Thermo Fisher Scientific) according to standard techniques. The Western blots were imaged using Bio-rad Chemidoc MP and quantified using ImageJ software (NIH).
# (§5) To confirm whether PDPN could affect migration and invasion of melanoma cells in wnt/β-catenin signaling pathway-dependent manner, A375 cells with PDPN knockdown were treated with a Wnt/β-catenin signaling pathway agonist (SKL2001) and PDPN overexpression A875 cells were treated with an inhibitor (IWR1). […] Furthermore, the levels of EMT positively correlated proteins, including N-cadherin, vimentin and snail were all suppressed, while E-cadherin was increased in A375 cells transfected with LV-shPDPN, and these phenomena were reversed following treatment with SKL2001 (Fig. S2E). In contrast, in the A875 cells, the activation of EMT by PDPN overexpression was blocked by IWR1 (Fig. S2E).
# [4] = system: melanoma cells; test: Transwell invasion with SKL2001, melanoma cell lines; type: cell-based; details: combined with CY12-RP2
# Protocol: as §3, with “(NIH). […]” for “(NIH).”
# (§6) (A) TUNEL analysis of apoptosis was conducted on orthotopic xenografts tumor sections using fluorescence staining. […] (B) Fluorescence staining of Ki67 was carried out on orthotopic xenograft tumor sections.
# (§7) The power field scale bar, 100 μm. (C) Serum His-CY12-RP2 levels of the orthotopic xenografts mice treated by various dosage of CY12-RP2 were measured by His-ELISA kit. […]
# (§8) kit. (E) Serum ALT, AST, TG, and γ-GT levels of the orthotopic xenografts model were measured by ELISA. […]
# [5] = system: EMT proteins in A375 LV-shPDPN cells; test: Western blot EMT proteins, PDPN-knockdown A375 cells; type: cell-based
# Protocol: as §4, §5
# [6] = system: A375 PDPN knockdown cells; test: Wound healing, PDPN-knockdown A375 cells; type: cell-based; details: A375 with PDPN knockdown
# Protocol: as §1, §2
# [7] = system: melanoma cells; test: Wound healing with SKL2001, melanoma cell lines; type: cell-based; details: combined with CY12-RP2
# Protocol: as §1, with “The cells were then treated with CY12-RP2 (0 μM, 5 μM, 25 μM) for 24 h or 48 h, and then images were acquired again. Handling of the experimental results were carried out as previously described.” left out
# as §6, §7, §8
# [8] = system: Wnt/β-catenin signaling pathway; test: Western blot, EMT and Wnt/β-catenin pathway, melanoma cells; type: cell-based; details: combined with CY12-RP2; SKL2001 50 μM; Western blot
# Protocol: as §4
# Fig. S4: The inhibition of cells metastasis and invasion by CY12-RP2 can be […]
# (A, B) The inhibition of CY12-RP2 on the migration capacity of melanoma cell lines was reversed by SKL2001 (A). Statistical analysis was performed to determine the migrated distance (B). The power field scale bar, 100 μm. (C, D) Effect of CY12-RP2 on the invasive ability of melanoma cell lines were reversed by SKL2001 (C). […]
# as §6, §7, §8
# [9] = system: A375 PDPN knockdown cells; test: Transwell, PDPN-knockdown A375 cells; type: cell-based; details: A375 with PDPN knockdown
# Protocol: as §3, §2
# [10] = system: melanoma; details: in vitro and in vivo; cited from earlier work
# Source text: Therapeutic peptides are a novel and promising type of anti-cancer drug, due to several important advantages over proteins or antibodies: they are molecularly small, easy to synthesize, and capable of penetrating cell membranes; they also have high biological activity, affinity, chemical diversity, and specificity. Phage display technology is a high-throughput screening technique that greatly amplifies the application of directional evolution techniques for antibody and peptide modification screening, and first described in 1985 by Smith. Phage display inserts th ...
molecule,measurement,setting,value
O=C(Nc1cccc2cccnc12)c1ccc(N2C(=O)[C@@H]3[C@H](C2=O)[C@@H]2C=C[C@H]3C2)cc1 [IWR1],promotion of migration by PDPN overexpression,[1],inhibited
same,increase of invasion mediated by PDPN overexpression,[2],abrogated
same,activation of EMT by PDPN overexpression,[3],blocked
O=C(NCCCn1ccnc1)c1cc(-c2ccco2)on1 [SKL2001],effect of SKL2001 on CY12-RP2 inhibition of invasion,[4],significantly reversed
same,"changes of N-cadherin, vimentin, snail and E-cadherin by LV-shPDPN",[5],reversed
same,inhibition of migration by PDPN knockdown,[6],abolished
same,effect of SKL2001 on CY12-RP2 inhibition of migration,[7],significantly reversed
same,effect of SKL2001 on CY12-RP2 inhibition of EMT and Wnt/β-catenin signaling,[8],significantly reversed
same,decrease of invasion mediated by PDPN knockdown,[9],abrogated
[-CSSRTMHHC-] [peptide screened by C7C phage display library],melanoma growth and invasion,[10],suppress melanoma growth and invasion both in vitro and in vivo
